The record followed here is PubChem BioAssay AID248 (DTP/NCI, 2004).

The test system of the assay is L1210 leukemia ip in BDF1 mice, survival T/C. Put plainly: NCI In Vivo Anticancer Drug Screen. Data for tumor model L1210 Leukemia (intraperitoneal) in B6D2F1 (BDF1) mice. As to conditions: endpoint: mean survival time, higher = longer survival. In outline: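 Value reflects the ratio of survival in compound-treated mice to survival in vehicle-treated controls, with both groups carrying the same transplanted tumor.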

Where [1] appears, read: dose: 25.0 mg/kg/injection, schedule: Q01DX009 (ip), vehicle: saline.
[2] abbreviates: dose: 50.0 mg/kg/injection, schedule: Q01DX009 (ip), vehicle: saline.
Setting [3] is: dose: 100.0 mg/kg/injection, schedule: Q01DX009 (ip), vehicle: saline.
Setting [4] is: dose: 100.0 mg/kg/injection, schedule: Q04DX003 (ip), vehicle: saline.
Where [5] appears, read: dose: 200.0 mg/kg/injection, schedule: Q04DX003 (ip), vehicle: saline.
The mark [6] stands for this setting: dose: 400.0 mg/kg/injection, schedule: Q04DX003 (ip), vehicle: saline.
[7] abbreviates: dose: 100.0 mg/kg/injection, schedule: Q04DX003 (ip), vehicle: saline with Tween-80.
The mark [8] stands for this setting: dose: 200.0 mg/kg/injection, schedule: Q04DX003 (ip), vehicle: saline with Tween-80.
Where [9] appears, read: dose: 100.0 mg/kg/injection, schedule: Q01DX001 (ip), vehicle: Klucel (hydroxypropylcellulose) (HPC).
The mark [10] stands for this setting: dose: 100.0 mg/kg/injection, schedule: Q04DX003 (ip), vehicle: Klucel (hydroxypropylcellulose) (HPC).
The mark [11] stands for this setting: dose: 200.0 mg/kg/injection, schedule: Q01DX001 (ip), vehicle: Klucel (hydroxypropylcellulose) (HPC).
[12] abbreviates: dose: 200.0 mg/kg/injection, schedule: Q04DX003 (ip), vehicle: Klucel (hydroxypropylcellulose) (HPC).
[13] abbreviates: dose: 400.0 mg/kg/injection, schedule: Q01DX001 (ip), vehicle: Klucel (hydroxypropylcellulose) (HPC).
[14] abbreviates: dose: 400.0 mg/kg/injection, schedule: Q04DX003 (ip), vehicle: Klucel (hydroxypropylcellulose) (HPC).
Setting [15] is: dose: 100.0 mg/kg/injection, schedule: Q01DX009 (ip), vehicle: Klucel (hydroxypropylcellulose) (HPC).
[16] abbreviates: dose: 200.0 mg/kg/injection, schedule: Q01DX009 (ip), vehicle: Klucel (hydroxypropylcellulose) (HPC).

Inconclusive results and toxic doses are left out.

`CCCCC1C2CCCCC2CC2CCCCC21` (stereo not given): the T/C was 98 % of control (dose: 100.0 mg/kg/injection, schedule: Q01DX001 (ip), vehicle: saline with Tween-80); 101 % of control (dose: 200.0 mg/kg/injection, schedule: Q01DX001 (ip), vehicle: saline with Tween-80); 98 % of control (dose: 400.0 mg/kg/injection, schedule: Q01DX001 (ip), vehicle: saline with Tween-80).

`COc1cc(C(=O)OC(C)CN2CCOCC2)cc(OC)c1OC` (stereo not given): the T/C is 90 % of control under setting [1]; 95 % of control (dose: 25.0 mg/kg/injection, schedule: Q04DX003 (ip), vehicle: saline); 101 % of control under setting [2]; 109 % of control (dose: 50.0 mg/kg/injection, schedule: Q04DX003 (ip), vehicle: saline); 100 % of control under setting [3]; 101 % of control under setting [4]. In addition, the T/C reads like this: (dose: 200.0 mg/kg/injection, schedule: Q01DX009 (ip), vehicle: saline) 90 % of control; under setting [5], 101 % of control; under setting [6], 111 % of control.

With `CC(=O)C(C)(CCC#N)CCC#N`, the T/C is, setting by setting: (dose: 50.0 mg/kg/injection, schedule: Q01DX009 (ip), vehicle: saline with Tween-80) 105 % of control; (dose: 100.0 mg/kg/injection, schedule: Q01DX009 (ip), vehicle: saline with Tween-80) 91 % of control; under setting [7], 108 % of control; under setting [8], 104 % of control.

As for `CC(C)C1=CC23CCC4C(C)(C(=O)Cl)CCCC4(C)C2CC1C1(Cl)C(=O)OC(=O)C31Cl` (stereo not given), the T/C (dose: 75.0 mg/kg/injection, schedule: Q01DX001 (ip), vehicle: other) is 94 % of control; the T/C (dose: 150.0 mg/kg/injection, schedule: Q01DX001 (ip), vehicle: other) was 93 % of control; the T/C (dose: 300.0 mg/kg/injection, schedule: Q01DX001 (ip), vehicle: other) is 89 % of control.

Consider `CN(C(=S)c1ccc(Cl)cc1)c1ccccc1`, for which the T/C is, setting by setting: under setting [9], 103 % of control; under setting [10], 92 % of control; under setting [11], 98 % of control; under setting [12], 102 % of control; under setting [13], 103 % of control; under setting [14], 97 % of control.

For the compound `Nc1nnnn1N(Cc1ccccc1)Cc1ccccc1`, the T/C is 96 % of control under setting [10] and 117 % of control under setting [12].

On to `O=C(CBr)Nc1ccc(C(=O)O)c(O)c1`, for which the T/C (dose: 12.5 mg/kg/injection, schedule: Q04DX003 (ip), vehicle: Klucel (hydroxypropylcellulose) (HPC)) was 103 % of control; the T/C (dose: 25.0 mg/kg/injection, schedule: Q04DX003 (ip), vehicle: Klucel (hydroxypropylcellulose) (HPC)) is 92 % of control; the T/C (dose: 50.0 mg/kg/injection, schedule: Q04DX003 (ip), vehicle: Klucel (hydroxypropylcellulose) (HPC)) is 92 % of control.

As to `Cc1ccc(S(=O)(=O)Nc2ccc(C(=O)NC(CCC(=O)O)C(=O)O)cc2)cc1` (stereo not given), the T/C runs as follows: (dose: 100.0 mg/kg/injection, schedule: Q04DX003 (ip), vehicle: gum acacia) 95 % of control; (dose: 200.0 mg/kg/injection, schedule: Q04DX003 (ip), vehicle: gum acacia) 98 % of control; (dose: 400.0 mg/kg/injection, schedule: Q04DX003 (ip), vehicle: gum acacia) 95 % of control.

In the case of `CCOP(=O)(OCC)OC(=C(F)F)P(=O)(OCC)OCC`, the T/C under setting [4] was 98 % of control, the T/C under setting [5] was 101 % of control and the T/C under setting [6] was 96 % of control.

For the compound `O=C(Nc1ccc(S(=O)(=O)Nc2ccc(N=Nc3ccccc3)cc2)cc1)C(SC1=NC=NC2=NC=NC21)SC1=NC=NC2=NC=NC21` (stereo not given), the T/C (dose: 75.0 mg/kg/injection, schedule: Q04DX003 (ip), vehicle: saline) was 104 % of control; the T/C (dose: 150.0 mg/kg/injection, schedule: Q04DX003 (ip), vehicle: saline) was 96 % of control; the T/C (dose: 300.0 mg/kg/injection, schedule: Q04DX003 (ip), vehicle: saline) was 109 % of control.

Take `O=C(Oc1ccccc1)C1OC1c1ccccc1` (stereo not given): the T/C runs as follows: (dose: 100.0 mg/kg/injection, schedule: Q04DX003 (ip), vehicle: alcohol) 103 % of control; (dose: 200.0 mg/kg/injection, schedule: Q04DX003 (ip), vehicle: alcohol) 98 % of control; (dose: 400.0 mg/kg/injection, schedule: Q04DX003 (ip), vehicle: alcohol) 105 % of control.

`NCCCCS(=O)(=O)Nc1ccc(Nc2c3ccccc3nc3cc([N+](=O)[O-])ccc23)cc1`: the T/C was 117 % of control (dose: 2.1 mg/kg/injection, schedule: Q01DX009 (ip), vehicle: saline); 121 % of control (dose: 3.1 mg/kg/injection, schedule: Q01DX009 (ip), vehicle: saline); 123 % of control (dose: 16.0 mg/kg/injection, schedule: Q01DX009 (ip), vehicle: saline); 158 % of control under setting [1]; 111 % of control (dose: 25.0 mg/kg/injection, schedule: Q01DX009 (sc), vehicle: saline); 228 % of control under setting [2]. Further, the T/C reads like this: (dose: 50.0 mg/kg/injection, schedule: Q01DX009 (sc), vehicle: saline) 118 % of control; under setting [3], 266 % of control; (dose: 100.0 mg/kg/injection, schedule: Q01DX009 (sc), vehicle: saline) 175 % of control; (dose: 200.0 mg/kg/injection, schedule: Q01DX009 (sc), vehicle: saline) 163 % of control.

On to `CC1(C)c2cc3ccc(Cl)cc3nc2-c2ccccc2C1(C)O` (stereo not given), for which the T/C is 89 % of control under setting [15]; 98 % of control (dose: 100.0 mg/kg/injection, schedule: Q04DX003 (ip), vehicle: acetone); 89 % of control under setting [16]; 101 % of control (dose: 200.0 mg/kg/injection, schedule: Q04DX003 (ip), vehicle: acetone); 91 % of control (dose: 400.0 mg/kg/injection, schedule: Q04DX003 (ip), vehicle: acetone).

For the compound `S=C(Nc1ccccc1)N1CC1`, the T/C reads like this: under setting [9], 96 % of control; under setting [7], 91 % of control; under setting [11], 98 % of control; under setting [8], 92 % of control; under setting [13], 94 % of control; (dose: 400.0 mg/kg/injection, schedule: Q04DX003 (ip), vehicle: saline with Tween-80) 90 % of control.

Regarding `CC(=O)OC1=COc2c(Cl)ccc3cccc1c23`, the T/C was 103 % of control under setting [9], 109 % of control under setting [11] and 97 % of control under setting [13].

Regarding `COC(=O)C(CCSC)NC(=O)C(C)NC(=O)c1cnc2ccccc2n1` (stereo not given), the T/C reads like this: (dose: 100.0 mg/kg/injection, schedule: Q01DX001 (ip), vehicle: carboxymethylcellulose (CMC)) 91 % of control; (dose: 200.0 mg/kg/injection, schedule: Q01DX001 (ip), vehicle: carboxymethylcellulose (CMC)) 94 % of control; (dose: 400.0 mg/kg/injection, schedule: Q01DX001 (ip), vehicle: carboxymethylcellulose (CMC)) 98 % of control.

As for `CCOc1ccccc1NC(=S)NC(=O)c1cccc([N+](=O)[O-])c1`, the T/C is 100 % of control under setting [15]; 98 % of control under setting [10]; 96 % of control under setting [16]; 98 % of control under setting [12]; 96 % of control (dose: 400.0 mg/kg/injection, schedule: Q01DX009 (ip), vehicle: Klucel (hydroxypropylcellulose) (HPC)); 100 % of control under setting [14].
